What was measured:
Assay in all cases: area under concentration-response curve (viability) (AUC (a.u.)); higher = less active
Settings in all cases: 48 h
CU-ACC1 = tested on: CU-ACC1
Outline: (§1)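 AC50 and area under the curve values derive from fitted concentration-response curves, restricted to inhibitory or non-responding curve classes. The curves came from three adrenocortical carcinoma cell lines in 1,536-well plates, each receiving 23 nL of every library compound at 11 concentrations. Viability was read by CellTiter-Glo luminescence after 48 h, normalised per plate to vehicle and empty-well controls.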

CU-ACC2 = tested on: CU-ACC2
Outline: as §1

NCI-H295R = tested on: NCI-H295R
Outline: as §1

SMILES | area under concentration-response curve (CU-ACC1) | area under concentration-response curve (CU-ACC2) | area under concentration-response curve (NCI-H295R)
COC1=C(OCCCOC2=C(OC)C=C3C(=O)N4CC(=C)C[C@H]4\C=N/C3=C2)C=C5\N=C/[C@@H]6CC(=C)CN6C(=O)C5=C1 | 320 | 404 | 444
OC[C@H]1O[C@H](C[C@@H]1O)N2\C=C(\I)C(=O)NC2=O | 496 | 543 | 501
CC[S+](=O)([O-])c1ccc2oc(-c3ccc4ccccc4c3)nc2c1 | 538 | 602 | 514
N#CN1CCC[C@@H](n2nc(-c3ccc(Oc4ccc(F)cc4F)cc3)c(C(N)=O)c2N)C1 | 487 | 607 | 553
C[C@H]1C[C@@H]2[C@H](CC[C@@]3(C)[C@H]2CC[C@]3(OC(C)=O)C(C)=O)[C@@]\4(C)CCC(=O)\C=C14 | 554 | 618 | 557
O=C(O)c1cc(O)c2c(c1)C(=O)c1cccc(O)c1C2=O | 529 | 622 | 582
CC(C)(C)C(=O)Oc1ccc2c(c1)nc(NC(=O)c1cccc([N+](=O)[O-])c1)n2CCCO | 506 | 584 | 525
O=C(O)CCn1c2c(c3ccccc31)C[C@H](N[S+](=O)([O-])c1ccc(F)cc1)CC2 | 445 | 540 | 496
CC(C)[C@H]1C(=O)N[C@@H](CCCN=C(N)N)C(=O)NCC(=O)N[C@@H](CC(=O)O)C(=O)N[C@H](Cc2ccccc2)C(=O)N1C | 443 | 624 | 601
CC(C)(C)C#Cc1cc(N(C(=O)[C@H]2CC[C@H](C)CC2)[C@H]2CC[C@@H](O)CC2)c(C(=O)O)s1 | 497 | 478 | 497
CCCCCN(CCC12CC3CC(CC(C3)C1)C2)C(=O)NCCCc1ccncc1 | 472 | 519 | 453
O=C(Oc1ccc([N+](=O)[O-])cc1)N1CCC(C(O)(c2ccc3c(c2)OCO3)c2ccc3c(c2)OCO3)CC1 | 495 | 575 | 535
COc1ccccc1[C@H](c1cccc2ccccc12)[C@@](C)(C#N)C(=O)N1CCC(c2cccc(C(F)(F)F)c2)CC1 | 566 | 665 | 587
C=CC[N+]1([C@H]2C[C@H]3[C@@H]4CC[C@H]5C[C@H](O)[C@@H](N6CCOCC6)C[C@]5(C)[C@H]4CC[C@]3(C)[C@H]2OC(C)=O)CCCC1 | 597 | 639 | 610
CC12CC3CC(C)(C1)CC(N)(C3)C2 | 437 | 431 | 457
Clc1ccccc1CN1CCc2sccc2C1 | 510 | 617 | 543
ClC\1=C(/CN2CCCC2=N)NC(=O)NC1=O | 505 | 547 | 486
CC(N[C@H]1C[C@@H]1c1ccccc1)c1ccc2c(c1)OCCO2 (some centres not stated) | 432 | 453 | 432
CCC1=C(C)CN(C(=O)NCCc2ccc(S(=O)(=O)NC(=O)N[C@H]3CC[C@H](C)CC3)cc2)C1=O | 508 | 600 | 559

Source: the supplement of paper PMC10949913
